# Results published in patent US12090163B2, “Pharmaceutical compositions” (CIPLA LIMITED, priority 2017, dated 2024).
# Counter-ions that a name gives are not always drawn.
# What was measured:
# Assay type in all cases: cell-based
# HCV replicon = HCV replicon antiviral evaluation assay
# Protocol: (§1) The subgenomic HCV replicons of genotype 1a (H77 strain), 1b (Coni strain), and 2a (JFH-1 strain), which are Huh7 human hepatoma cell lines that contains an HCV replicon were used.
# The HCV replicon antiviral evaluation assay examines the effects of compounds at six serial dilutions. Human interferon alpha-2b (rIFNα-2b) and/or Sofosbuvir were included in each run as a positive control compound.
# (§2) Briefly, the replicon cells were plated at 5,000 cells/well into 96-well plates that were dedicated for the analysis of cell numbers (cytotoxicity) or antiviral activity. On the following day, samples were diluted with assay media and added to the appropriate wells. Cells were processed 72 hours later when the cells were still sub-confluent. For the luciferase endpoint assay, HCV replicon levels were assessed as replicon-derived Luc activity. The concentration of drug that reduces cell viability was assessed by the fluorometric CytoTox-1 cell proliferation assay (Promega), (expressed as cell numbers). For the qRT-PCR/TaqMan assay, total RNA was extracted from the replicon cells using RNeasy 96 kit (Qiagen) according to the manufacturer's protocol. Real-time RTPCR/TaqMan assays was performed to measure copy numbers of the replicon RNA and cellular ribosomal RNA.
# [1] = Cytotoxicity in HCV replicon cells (CytoTox-1 cell proliferation assay); details: human, concentration decreasing cell viability by 50%
# Protocol: as §1, §2
# [2] = Compound cytotoxicity in PBMC assay plates by MTS; details: human, PBMCs, listed as of isolate JV-1083
# Protocol: Fresh human PBMCs, seronegative for HIV and HBV, were isolated from screened donors (Biological Specialty Corporation, Colmar, PA). Cells were pelleted/washed 2-3 times by low speed centrifugation and re-suspension in PBS to remove contaminating platelets. The Leukophoresed blood was then diluted 1:1 with Dulbecco's Phosphate Buffered Saline (DPBS) and layered over 15 mL of Ficoll (GE Healthcare #17-1440-02) in 50 mL centrifuge tube and then centrifuged for 30 minutes at 600×g. Banded PBMCs were gently aspirated from the resulting interface and subsequently washed 2× with PBS by low speed centrifugation. […] Pooling (mixing) of mononuclear cells from more than one donor was used to minimize the variability observed between individual donors, which results from quantitative and qualitative differences in HIV infection and overall response to the PHA and IL-2 of primary lymphocyte populations. […]
# Following removal of supernatant samples, compound cytotoxicity was measured by addition of MTS to the plates for determination of cell viability. […]
# At assay termination, assay plates were stained with the soluble tetrazolium-based dye MTS (CellTiter 96 Reagent, Promega) to determine cell viability and quantify compound toxicity. […] This allows the rapid quantitative analysis of cell viability and compound cytotoxicity. […]
structure (smiles),measurement,setting,value
C[C@H](Cn1cnc2c(N)ncnc21)OCP(=O)(OCOC(=O)C(C)(C)C)Oc1ccccc1 (stereo partly drawn) [((((((R)-1-(6-amino-9H-purin-9-yl)propan-2-yl)oxy)methyl)(phenoxy)phosphoryl)oxy)methyl pivalate fumarate],Selectivity Index,"HCV replicon; CC50/EC50, HCV replicon cells",5.98
same,Conclusion: activity against HCV,HCV replicon; HCV replicon assay,active
same,EC50,"HCV replicon; Hepatitis C virus, concentration inhibiting HCV replicon by 50%, 72 hours, genotype not given",8.38 µM
same,CC50 at 72 h,[1],50.1 µM
same,CC50,[2],27.7 µM
